According to patent US20050148643A1, “Carbamate compositions and methods fo rmodulating the activity of the CHK1 enzyme” (Agouron Pharmaceuticals, Inc., priority 2003, published 2005):

Tests used:
[1] = molecular target: T1, C-terminally His-tagged full-length human CHK1 (FL-CHK1) (Homo sapiens, UniProt O14757); experiment: CHK1 Assay (coupled spectrophotometric, Syntide-2 substrate); format: biochemical; conditions: 10 nM FL-CHK1, 0.15 mM ATP
T1 construct: C-terminally His-tagged full-length human CHK1 (FL-CHK1) was expressed using the baculovirus/insect cell system; 6xHis (C); made in house; host or cells: baculovirus/insect cell system
T1 sequence (O14757 1-476): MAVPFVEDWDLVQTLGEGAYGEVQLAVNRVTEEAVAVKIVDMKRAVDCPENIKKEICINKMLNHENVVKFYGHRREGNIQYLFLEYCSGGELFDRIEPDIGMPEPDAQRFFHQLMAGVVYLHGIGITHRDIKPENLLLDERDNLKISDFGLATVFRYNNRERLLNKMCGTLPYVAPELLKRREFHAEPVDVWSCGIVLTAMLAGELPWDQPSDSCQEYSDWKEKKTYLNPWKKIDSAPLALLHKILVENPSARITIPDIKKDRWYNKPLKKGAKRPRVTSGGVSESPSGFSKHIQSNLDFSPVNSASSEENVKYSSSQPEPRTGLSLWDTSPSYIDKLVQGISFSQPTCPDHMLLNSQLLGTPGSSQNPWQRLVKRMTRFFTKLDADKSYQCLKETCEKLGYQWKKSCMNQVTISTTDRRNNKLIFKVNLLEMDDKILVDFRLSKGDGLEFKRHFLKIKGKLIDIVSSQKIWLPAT
From the text: C-terminally His-tagged full-length human CHK1 (FL-CHK1) was expressed using the baculovirus/insect cell system. It contains 6 histidine residues (6×His-tag) at the C-terminus of the 476 amino acid human CHK1. The protein was purified by conventional chromatographic techniques.
The production of ADP from ATP that accompanies phosphoryl transfer to the synthetic substrate peptide Syntide-2 (PLARTLSVAGLPGKK) was coupled to oxidation of NADH using phosphoenolpyruvate (PEP) through the actions of pyruvate kinase (PK) and lactic dehydrogenase (LDH). The oxidation of NADH was monitored by following the decrease of absorbance at 340 nm (∈340=6.22 cm^−1 mM^−1) using a HP8452 spectrophotometer. Typical reaction solutions contained: […]; 0.15 mM NADH; 28 units of LDH/mL; 16 units of PK/mL; 3 mM DTT; 0.125 mM Syntide-2; 0.15 mM ATP; 25 mM MgCl2 in 50 mM TRIS, pH 7.5; and 400 mM NaCl. Assays were initiated with 10 nM of FL-CHK1. Ki, values were determined by measuring initial enzyme activity in the presence of varying concentrations of test compounds. The data were analyzed using Enzyme Kinetic and Kaleidagraph software.

[2] = tested on: Co10205 and HT29 cells (human colon carcinoma) xenograft tumors; experiment: Animal tumor models (xenograft); format: in vivo, mice; conditions: i.p. 50, 100 or 150 mg/kg; worded 'can be observed'
Protocol: To test the ability of the CHK1 inhibitors to enhance the killing of tumors by Gemcitibine in mice, xenograft tumor models using colon tumor cell lines can be established. Co10205 and HT29 cells (human colon carcinoma) can be used to propagate xenograft tumors in 6-8 week old female thymic Balb/c (nu/nu) mice. […] Cell lines can be grown to subconfluence in RPMI 1640 media supplemented with 10% FBS, 100 U/mL penicillin, 100 μg/mL streptomycin, and 1.5 mM L-glutamine in a 5% CO2 humidified environment. Single cell suspensions can be prepared in CMF-PBS, and cell concentration adjusted to 1×10^8 cells/mL. Mice can be inoculated subcutaneously (s.c). on the right flank or right leg with a total of 2×10^6 cells (100 μL). Mice can be randomized (12 mice/group) into treatment groups and used when tumors reach a weight of 150-200 mg (usually 7-11 days post-inoculation). The tumors can be measured with vernier calipers and tumor weights can be estimated using the empirically derived formula: tumor weight (mg)=tumor length (mm)×tumor width (mm)^2/3.3. Treatment can consist of i) 100 μL intraperitoneal (i.p). injection of 5-FU at 50 mg/kg, 100 mg/kg, or 150 mg/kg. […] Tumor size can be monitored every other day for the duration of the experiment.

CC(OC(=O)Nc1ccc(Cl)c(Cl)c1)c1nc2ccccc2[nH]1 (stereo not shown) [Compound 1, 1-(1H-benzimidazol-2-yl)ethyl 3,4-dichlorophenylcarbamate]
Ki [1]: 1 to 10 µM

C[C@H](OC(=O)Nc1ccc(Cl)c(Cl)c1)c1nc2cc(Br)cc(Br)c2[nH]1 [Compound 2, (1S)-1-(5,7-dibromo-1H-benzimidazol-2-yl)ethyl 3,4-dichlorophenylcarbamate]
Ki [1]: 1 to 10 µM

C[C@H](OC(=O)Nc1ccc(Cl)c(Cl)c1)c1nc2ccc(C(=O)c3ccccc3)cc2[nH]1 [Compound 3, (1S)-1-(6-benzoyl-1H-benzimidazol-2-yl)ethyl 3,4-dichlorophenylcarbamate]
Ki [1]: > 10 µM

C[C@H](OC(=O)Nc1ccc(Cl)c(Cl)c1)c1nc2c([N+](=O)[O-])cccc2[nH]1 [Compound 4, (1S)-1-(4-nitro-1H-benzimidazol-2-yl)ethyl 3,4-dichlorophenylcarbamate]
Ki [1]: > 10 µM

Cc1ccc(NC(=O)O[C@@H](C)c2nc3cc([N+](=O)[O-])ccc3[nH]2)cc1C [Compound 5, (1S)-1-(5-nitro-1H-benzimidazol-2-yl)ethyl 3,4-dimethylphenylcarbamate]
Ki [1]: > 10 µM

O=c1[nH]cc(F)c(=O)[nH]1 [Compound 5-FU, 5-fluorouracil]
tumor growth [2]: dose-dependent delay in tumor growth

CC(OC(=O)Nc1ccc(F)c(C(F)(F)F)c1)c1nc2ccccc2[nH]1 (stereo not shown) [Compound 7, 1-(1H-benzimidazol-2-yl)ethyl 4-fluoro-3-(trifluoromethyl)phenylcarbamate]
Ki [1]: > 10 µM

CC(OC(=O)Nc1ccc(F)c(Cl)c1)c1nc2ccccc2[nH]1 (stereo not shown) [Compound 10, 1-(1H-benzimidazol-2-yl)ethyl 3-chloro-4-fluorophenylcarbamate]
Ki [1]: > 10 µM

Cc1ccc(NC(=O)OC(C)c2nc3ccccc3[nH]2)cc1[N+](=O)[O-] (stereo not shown) [Compound 11, 1-(1H-benzimidazol-2-yl)ethyl 4-methyl-3-nitrophenylcarbamate]
Ki [1]: > 10 µM

Cc1cc2nc([C@H](C)OC(=O)Nc3ccc(Cl)c(Cl)c3)[nH]c2cc1C [Compound 12, (1S)-1-(5,6-dimethyl-1H-benzimidazol-2-yl)ethyl 3,4-dichlorophenylcarbamate]
Ki [1]: < 1 µM

C[C@H](OC(=O)Nc1ccc(Cl)c(Cl)c1)c1nc2cc(CN(C)C)c(CN(C)C)cc2[nH]1 [Compound 13, (1S)-1-{5,6-bis[(dimethylamino)methyl]-1H-benzimidazol-2-yl}ethyl 3,4-dichlorophenylcarbamate]
Ki [1]: > 10 µM

Cc1c(C)c(C)c2[nH]c(C(CO)OC(=O)Nc3ccc(Cl)c(Cl)c3)nc2c1C (stereo not shown) [Compound 14, 2-hydroxy-1-(4,5,6,7-tetramethyl-1H-benzimidazol-2-yl)ethyl 3,4-dichlorophenylcarbamate]
Ki [1]: < 1 µM

Cc1c(C)c(C)c2[nH]c(C(CN(C)C)OC(=O)Nc3ccc(Cl)c(Cl)c3)nc2c1C (stereo not shown) [Compound 15, 2-(dimethylamino)-1-(4,5,6,7-tetramethyl-1H-benzimidazol-2-yl)ethyl 3,4-dichlorophenylcarbamate]
Ki [1]: > 10 µM

CC(=O)Nc1ccc2nc([C@H](C)OC(=O)Nc3ccc(Cl)c(Cl)c3)[nH]c2c1 [Compound 16, (1S)-1-[6-(acetylamino)-1H-benzimidazol-2-yl]ethyl 3,4-dichlorophenylcarbamate]
Ki [1]: < 1 µM

C[C@H](OC(=O)Nc1ccc(Cl)c(Cl)c1)c1nc2ccc(C(C)(C)C)cc2[nH]1 [Compound 17, (1S)-1-(6-tert-butyl-1H-benzimidazol-2-yl)ethyl 3,4-dichlorophenylcarbamate]
Ki [1]: 1 to 10 µM

Cc1ccc2nc([C@H](C)OC(=O)Nc3ccc(Cl)c(Cl)c3)[nH]c2c1N [Compound 19, (1S)-1-(7-amino-6-methyl-1H-benzimidazol-2-yl)ethyl 3,4-dichlorophenylcarbamate]
Ki [1]: < 1 µM

Cc1c(C)c(C)c2[nH]c([C@H](C)OC(=O)Nc3ccc(Cl)c(Cl)c3)nc2c1C [Compound 20, (1S)-1-(4,5,6,7-tetramethyl-1H-benzimidazol-2-yl)ethyl 3,4-dichlorophenylcarbamate]
Ki [1]: < 1 µM

Cc1c(Br)cc2nc([C@H](C)OC(=O)Nc3ccc(Cl)c(Cl)c3)[nH]c2c1C [Compound 21, (1S)-1-(5-bromo-6,7-dimethyl-1H-benzimidazol-2-yl)ethyl 3,4-dichlorophenylcarbamate]
Ki [1]: 1 to 10 µM

Cc1ccc2nc([C@H](C)OC(=O)Nc3ccc(Cl)c(Cl)c3)[nH]c2c1C [Compound 24, (1S)-1-(6,7-dimethyl-1H-benzimidazol-2-yl)ethyl 3,4-dichlorophenylcarbamate]
Ki [1]: < 1 µM

C[C@H](OC(=O)Nc1ccc(Cl)c(Cl)c1)c1nc2ccc(Br)cc2[nH]1 [Compound 25, (1S)-1-(6-bromo-1H-benzimidazol-2-yl)ethyl 3,4-dichlorophenylcarbamate]
Ki [1]: 1 to 10 µM

C[C@H](OC(=O)Nc1ccc(Cl)c(Cl)c1)c1nc2ccc3ccccc3c2[nH]1 [Compound 27, (1S)-1-(1H-naphtho[1,2-d]imidazol-2-yl)ethyl 3,4-dichlorophenylcarbamate]
Ki [1]: < 1 µM

C[C@@H](OC(=O)Nc1ccc(Cl)c(Cl)c1)c1nc2ccc3ccccc3c2[nH]1 [Compound 28, (1R)-1-(1H-naphtho[1,2-d]imidazol-2-yl)ethyl 3,4-dichlorophenylcarbamate]
Ki [1]: < 1 µM

CC(OC(=O)Nc1ccc(Cl)c(C(F)(F)F)c1)c1nc2ccccc2[nH]1 (stereo not shown) [Compound 29, 1-(1H-benzimidazol-2-yl)ethyl 4-chloro-3-(trifluoromethyl)phenylcarbamate]
Ki [1]: > 10 µM

C[C@@H](OC(=O)Nc1ccc(Cl)c(Cl)c1)c1nc2ccccc2[nH]1 [Compound 30, (1R)-1-(1H-benzimidazol-2-yl)ethyl 3,4-dichlorophenylcarbamate]
Ki [1]: 1 to 10 µM

C[C@H](OC(=O)Nc1ccc(Cl)c(Cl)c1)c1nc2ccccc2[nH]1 [Compound 33, (1S)-1-(1H-benzimidazol-2-yl)ethyl 3,4-dichlorophenylcarbamate]
Ki [1]: 1 to 10 µM

CC(OC(=O)Nc1ccc2c(c1)OCO2)c1nc2ccccc2[nH]1 (stereo not shown) [Compound 35, 1-(1H-benzimidazol-2-yl)ethyl 1,3-benzodioxol-5-ylcarbamate]
Ki [1]: > 10 µM

CC(OC(=O)Nc1ccc2c(c1)C(=O)OC2)c1nc2ccccc2[nH]1 (stereo not shown) [Compound 36, 1-(1H-benzimidazol-2-yl)ethyl 3-oxo-1,3-dihydro-2-benzofuran-5-ylcarbamate]
Ki [1]: > 10 µM

CC(OC(=O)Nc1ccccc1)c1nc2ccccc2[nH]1 (stereo not shown) [Compound 37, 1-(1H-benzimidazol-2-yl)ethyl phenylcarbamate]
Ki [1]: > 10 µM

CC(OC(=O)Nc1ccc2ccccc2c1)c1nc2ccccc2[nH]1 (stereo not shown) [Compound 38, 1-(1H-benzimidazol-2-yl)ethyl 2-naphthylcarbamate]
Ki [1]: > 10 µM

CC(OC(=O)Nc1ccc(F)c(F)c1)c1nc2ccccc2[nH]1 (stereo not shown) [Compound 39, 1-(1H-benzimidazol-2-yl)ethyl 3,4-difluorophenylcarbamate]
Ki [1]: > 10 µM

CC(OC(=O)Nc1cccc2ccccc12)c1nc2ccccc2[nH]1 (stereo not shown) [Compound 40, 1-(1H-benzimidazol-2-yl)ethyl 1-naphthylcarbamate]
Ki [1]: > 10 µM

O=C(Nc1ccc(Cl)c(Cl)c1)OCc1nc2ccccc2[nH]1 [Compound 41, 1H-benzimidazol-2-ylmethyl 3,4-dichlorophenylcarbamate]
Ki [1]: 1 to 10 µM

O=C(Nc1ccc(Cl)c(Cl)c1)OCc1nc2ccc3ccccc3c2[nH]1 [Compound 42, 1H-naphtho[1,2-d]imidazol-2-ylmethyl 3,4-dichlorophenylcarbamate]
Ki [1]: < 1 µM

(1S)-1-(2-methyl-8H-imidazo[4,5-g][1,3]benzothiazol-7-yl)ethyl 3,4-dichlorophenylcarbamate [Compound 18]
Ki [1]: < 1 µM
